Laboratory results as given in patent US5130474A, “Optically-active derivatives of (R) 5-pentylamino-5-oxopentanoic acid with antagonistic activity towards cholecystokin in and a method for their preparation” (Rotta Research Laboratorium SpA, priority 1987, dated 1992).
Like-named read-outs stand apart in the source and are kept apart here.

How the values were obtained:
[1] = target: T1, cholecystokinin receptors of ox gallbladder membranes (Bos taurus, UniProt A6QLH2); experiment: Inhibition of the binding of [125-I]-Bolton Hunter-CCK-8 to ox gallbladder membranes; conditions: pH 7.4, 2 h at 25° C., read-out: IC50, inhibition of the binding of (^125 I)-(B-H)-CCK-8
T1 construct: The ox gallbladder cell membranes were homogenised with Tris buffer (pH 7.4); from tissue; host or cells: ox gallbladder cell membranes
T1 sequence (A6QLH2 1-427): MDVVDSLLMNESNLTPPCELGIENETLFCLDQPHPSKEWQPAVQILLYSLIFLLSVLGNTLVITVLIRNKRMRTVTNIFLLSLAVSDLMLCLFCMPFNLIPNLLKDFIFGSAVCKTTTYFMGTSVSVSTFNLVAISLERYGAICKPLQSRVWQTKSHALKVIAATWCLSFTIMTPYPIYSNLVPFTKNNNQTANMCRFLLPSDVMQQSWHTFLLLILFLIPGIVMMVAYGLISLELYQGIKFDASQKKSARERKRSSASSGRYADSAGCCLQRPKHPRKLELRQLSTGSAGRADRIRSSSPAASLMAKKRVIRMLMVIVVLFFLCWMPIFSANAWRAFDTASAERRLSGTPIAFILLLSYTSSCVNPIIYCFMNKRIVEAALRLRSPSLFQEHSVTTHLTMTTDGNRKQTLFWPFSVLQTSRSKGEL
Experimental: The ox gallbladder cell membranes were homogenised with Tris buffer (pH 7.4) and the homogenate was centrifuged at 50,000 gravity for 10 minutes. The membranes were then incubated with a radioactive tracer and the compounds under study for 2 h at 25° C.
After the supernatant liquid had been discarded, the radioactivity associated with the pellet was determined with a liquid scintillator. The specific binding was determined as the difference between the binding in the absence and in the presence of 10^-6 M CCK-8.

[2] = system: gallbladder contraction induced by egg yolk; experiment: Antispastic activity on the gallbladder in mice (gallbladder emptying induced by egg yolk); assay type: in vivo; conditions: for ED50: Mus musculus, ip, read-out: ID50, antispastic activity on gallbladder contraction induced by egg yolk
Experimental: The emptying of the gallbladder was induced by a single oral administration of 1 ml of a 30% suspension (weight/volume) of lyophilised egg yolk in a physiological solution.
Once it has been absorbed, the egg yolk, as stated above, induces the release of endogenous CCK.
The antagonist compounds were administered intraperitoneally (i.p.) 15 minutes before the contractant.
The % antispastic activity for each dose was calculated by the following formula: [formula] where P1 =average weight of the gallbladders of the group of animals treated with the drug plus the contractant
P2 =average weight of the gallbladders of the group of animals treated with contractant only
P3 =average weight of the gallbladders of the control group of animals.

[3] = system: piloric contraction induced by CCK; experiment: Antispastic activity on piloric contraction induced by CCK in rats; assay type: in vivo, rat; conditions: for ED50: ip, rat, 8 mcg/kg i.p. CCK, compound i.p. 15 minutes before, read-out: ID50, antispastic activity on piloric contraction induced by CCK
Experimental: A dose of 8 mcg/kg i.p. of CCK was used, which induces a sub-maximal contraction of the pilorus.
The antagonistic compounds were administered (i.p.) 15 minutes before the contractant. 10 minutes after the administration of the contractant, the animals were treated per os with 25 ml/kg of H2 O. 5 minutes after this administration, the animals were killed, their stomachs removed and the gastric content measured by removal with a syringe.
The % antispactic activity for each dose administered was calculated from the following formula: [formula] where V1 =the gastric-content volume of the group of animals treated with the drug plus the contractant
V2 =the gastric-content volume of the group of animals treated with the contractant only
V3 =the gastric-content volume of the control group of animals.
The compounds were tested at various doses so as to enable the calculation of the ID50 value, that is the dose (in mg/kg i.p.) which is able to inhibit the contractant effect of CCK by 50%.
The results obtained are given in Table 7, where the effects obtained are expressed as the ID50.

[4] = system: experimental pancreatitis induced by taurocholate; experiment: Pancreatitis induced by sodium taurocholate; assay type: in vivo, rats; conditions: for ED50: Rattus norvegicus, ip, 6 h
Experimental: The method described by Aho et al. (Scandinavian J. Gastroenterology 15 (1980), 411-16) was followed
Male rats weighing approximately 250 g were subjected to laparatomy and the pancreas exposed. 0.3 ml of a 6% solution of sodium taurocholate was injected directly into the pancreatic tissue.
The products under test were administered intraperitoneally (i.p.) 30 minutes before the operation and 3 hours after the operation. 6 hours after the laparotomy and after anesthesia with ether, blood was removed from the retro-orbital plexus, the animals were killed and the pancreas removed and weighed. The activity of the serum amylase was determined by the Ceska method (Clin. Chim. Acta 26 (1969), 437-444).
The compounds were tested at different doses so as to enable the calculation of the ID50 value, that is the dose (in mg/kg i.p.) which is able to inhibit the toxic effect of the sodium taurocholate by 50%, expressed both as a % inhibition of the increase in weight of the pancreas and as a % inhibition of the increase in serum amylase.

[5] = mice, i.p. 15 minutes before egg yolk
[6] = 30 min before and 3 h after operation, read-out: ID50, inhibition of the increase in serum amylase
[7] = 30 min before and 3 h after operation, read-out: ID50, inhibition of the increase in weight of the pancreas
[8] = 5 mg/kg i.p. (second dose of compound 8) + taurocholate
[9] = 5 mg/kg i.p. (third dose of compound 8) + taurocholate

CCCCCN(CCCCC)C(=O)[C@@H](CCC(=O)O)NC(=O)c1ccc2ccccc2c1 [Compound 7]
IC50 [1]: 0.001 µM | % inhibition of the emptying of the gallbladder ([2]; 0.025 mg/kg i.p.): 24.0% | % inhibition of the emptying of the gallbladder ([2]; 0.05 mg/kg i.p.): 44.2% | ED50 [2, 5]: 0.05 mg/kg | % inhibition of piloric contraction ([3]; 0.01 mg/kg i.p.): 27.7% | % inhibition of piloric contraction ([3]; 0.03 mg/kg i.p.): 48.8% | % inhibition of piloric contraction ([3]; 0.1 mg/kg i.p.): 80.8% | ED50 [3]: 0.03 mg/kg | % inhibition increase in amylase ([4]; 0.3 mg/kg i.p. + taurocholate): 42.2% | % inhibition of weight increase (pancreas) ([4]; 0.3 mg/kg i.p. + taurocholate): 36.4% | % ratio pancreas weight / animal weight ([4]; 0.3 mg/kg i.p. + taurocholate): 0.47% | Amylase in the serum ([4]; 0.3 mg/kg i.p. + taurocholate): 12.0 U/ml | % inhibition increase in amylase ([4]; 1 mg/kg i.p. + taurocholate): 79.7% | % inhibition of weight increase (pancreas) ([4]; 1 mg/kg i.p. + taurocholate): 54.5% | % ratio pancreas weight / animal weight ([4]; 1 mg/kg i.p. + taurocholate): 0.45% | Amylase in the serum ([4]; 1 mg/kg i.p. + taurocholate): 9.6 U/ml | % inhibition increase in amylase ([4]; 3 mg/kg i.p. + taurocholate): 89.0% | % inhibition of weight increase (pancreas) ([4]; 3 mg/kg i.p. + taurocholate): 90.8% | % ratio pancreas weight / animal weight ([4]; 3 mg/kg i.p. + taurocholate): 0.41% | Amylase in the serum ([4]; 3 mg/kg i.p. + taurocholate): 9.0 U/ml | ED50 ([4]; both parameters, read-out: dose inhibiting the increase in weight of the pancreas and the increase in serum amylase by 50%): ~0.5 mg/kg | ED50 [4, 6]: 0.4 mg/kg | ED50 [4, 7]: 0.6 mg/kg

CCCCCN(CCCCC)C(=O)[C@@H](CCC(=O)O)NC(=O)c1ccc(Cl)c(Cl)c1 [Compound 8]
IC50 [1]: 0.0075 µM | % inhibition of the emptying of the gallbladder ([2]; 0.1 mg/kg i.p.): 25.2% | % inhibition of the emptying of the gallbladder ([2]; 0.1 mg/kg i.p. as printed (third, highest dose of compound 8)): 86.3% | % inhibition of the emptying of the gallbladder ([2]; 0.3 mg/kg i.p.): 53.2% | ED50 [2, 5]: 0.25 mg/kg | % inhibition of piloric contraction ([3]; 0.03 mg/kg i.p.): 29.8% | % inhibition of piloric contraction ([3]; 0.1 mg/kg i.p.): 48.0% | % inhibition of piloric contraction ([3]; 0.3 mg/kg i.p.): 68.1% | ED50 [3]: 0.11 mg/kg | % inhibition increase in amylase ([4]; 1 mg/kg i.p. + taurocholate): 40.7% | % inhibition of weight increase (pancreas) ([4]; 1 mg/kg i.p. + taurocholate): 35.3% | % ratio pancreas weight / animal weight ([4]; 1 mg/kg i.p. + taurocholate): 0.48% | Amylase in the serum ([4]; 1 mg/kg i.p. + taurocholate): 12.7 U/ml | % inhibition increase in amylase [4, 8]: 76.5% | % inhibition of weight increase (pancreas) [4, 8]: 52.5% | % ratio pancreas weight / animal weight [4, 8]: 0.45% | Amylase in the serum [4, 8]: 9.8 U/ml | % inhibition increase in amylase [4, 9]: 86.4% | % inhibition of weight increase (pancreas) [4, 9]: 82.3% | % ratio pancreas weight / animal weight [4, 9]: 0.40% | Amylase in the serum [4, 9]: 9.0 U/ml | ED50 [4, 6]: 1.2 mg/kg | ED50 [4, 7]: 1.8 mg/kg

CCCCCN(CCCCC)C(=O)[C@@H](CCC(=O)O)NC(=O)c1ccc(C)c(C)c1 [Compound 9]
IC50 [1]: 0.044 µM

CCCCCN(CCCOC)C(=O)[C@@H](CCC(=O)O)NC(=O)c1ccc2ccccc2c1 [Compound 10]
IC50 [1]: 0.0062 µM

CCCCCN(CCCOC)C(=O)[C@@H](CCC(=O)O)NC(=O)c1ccc(Cl)c(Cl)c1 [Compound 11]
IC50 [1]: 0.03 µM

CCCCCN(CCOCC)C(=O)[C@@H](CCC(=O)O)NC(=O)c1ccc2ccccc2c1 [Compound 12]
IC50 [1]: 0.0093 µM

CCCCCN(CCCCC)C(=O)[C@H](CCC(=O)O)NC(=O)c1ccc2ccccc2c1 [Compound 13]
IC50 [1]: 0.061 µM | % inhibition of the emptying of the gallbladder ([2]; 1 mg/kg i.p.): 18.8% | % inhibition of the emptying of the gallbladder ([2]; 3 mg/kg i.p.): 47.7% | % inhibition of the emptying of the gallbladder ([2]; 9 mg/kg i.p.): 80.2% | ED50 [2, 5]: 3.2 mg/kg | % inhibition of piloric contraction ([3]; 1 mg/kg i.p.): 17.7% | % inhibition of piloric contraction ([3]; 3 mg/kg i.p.): 39.0% | % inhibition of piloric contraction ([3]; 5 mg/kg i.p.): 54.2% | ED50 [3]: 4.55 mg/kg | active dose, times higher than compound 7 ([3]; piloric contraction): approximately 150 times

CCCCCN(CCCCC)C(=O)[C@H](CCC(=O)O)NC(=O)c1ccc(Cl)c(Cl)c1 [Compound 14]
IC50 [1]: 0.45 µM

CCCCCN(CCCCC)C(=O)[C@H](CCC(=O)O)NC(=O)c1ccc(C)c(C)c1 [Compound 15]
IC50 [1]: 2.2 µM

CCCCCN(CCCOC)C(=O)[C@H](CCC(=O)O)NC(=O)c1ccc2ccccc2c1 [Compound 16]
IC50 [1]: 0.56 µM

COc1ccc(Cc2nccc3cc(OC)c(OC)cc23)cc1OC [PAPAVERINE, reference compound]
% inhibition of the emptying of the gallbladder ([2]; 25 mg/kg i.p.): 0% | % inhibition of the emptying of the gallbladder ([2]; 50 mg/kg i.p.): 0% | % inhibition of the emptying of the gallbladder ([2]; 75 mg/kg i.p.): 26.1% | ID50, antispastic activity on gallbladder contraction induced by egg yolk [2, 5]: INACTIVE | antispastic activity on the gallbladder, in words ([2]; only at 75 mg/kg): slightly active

CCK-8: cold (unmarked) CCK [reference compound]
IC50 [1]: 0.0002 µM
